Data published in US20240382506A1, “Means and Methods to Regulate Gut Dysbiosis” (VIB VZW, priority 2021, published 2024).

Assays:
[1] = biological target: membrane pannexin-1 channels (Homo sapiens, UniProt Q96RD7); conditions: described in literature; cited from earlier work
Salmonella [2] = assay: Salmonella growth in CT26 cell supernatants; format: cell-based, Salmonella enterica serovar Typhimurium
Experimental: (§1) All mammalian cells were cultured at 5×10^5 cells per ml. Cells were washed with 1× PBS before induction of cell death in the indicated medium. Jurkat cells were cultured in suspension at 5×10^5 cells/ml. After induction of cell death, supernatant was collected and spun at 330 rcf for 5 minutes to remove cellular debris. Unless stated otherwise, the resulting supernatant was filtered using a 0.2 μm syringe filter and either used immediately or frozen at −20° C. for later use. Cells were stained with Annexin V (AV) conjugated to APC or Pac Blue and either Sytox blue, Yoyo-1, or 7AAD (DNA binding dyes) for 15 minutes at room temperature in Annexin V binding buffer (BD). Flow cytometry was performed using the Attune NxT (Invitrogen), the FACS Calibur (BD), the LSR Fortessa (BD), or the LSRII (BD). Data were analyzed using FlowJo v.10 software. All independent experiment values shown are the average values of technical duplicates. ‘% Annexin V^+’ cells include Annexin V^+DNA dye^− and Annexin V^+DNA dye^+ cell populations.
FADD-dependent apoptosis: CT26:FADD clones were incubated with 1 μg/ml doxycycline for 16 hours to induce expression of the construct. Doxycycline was washed away before addition of 10 nM B/B Homodimerizer for 5 hours to induce death. For Caspase inhibition studies, cells were incubated with 30 μM QVD for 1 hour prior to B/B administration and QVD was maintained in the media. […]
OD600 measurements: 4 ml of supernatant or media controls were inoculated with 1-2×10^7 CFU/ml of the indicated bacterial species. Cultures were grown at 37° C. with 200 rpm agitation (aerobic) and bacterial growth was quantified by OD600 measurements using the Ultrospec 10 (VWR) at the indicated time points. […]
(§2) CFU/ml values: 500 μl of supernatant or media controls were inoculated with 1×10^3 CFU of the indicated strain. Cultures were grown at 37° C. with 200 rpm agitation (aerobic) and growth was assessed at the indicated time by serially diluting with 1× PBS and plating onto LB agar (in vitro supernatants) or MacConkey agar (ex vivo primary colonocyte supernatants) to obtain CFU/ml values.

Salmonella [3] = format: cell-based, Salmonella enterica serovar Typhimurium
Experimental: Full length colons (from cecum to rectum) were excised from the indicated genotype of mice and cut open longitudinally to flay the colon open. Opened colons were vortexed 2-3 times in sterile 1× PBS to remove fecal content. Colons were then cut horizontally into 5-7 mm long pieces and incubated in DMEM +10% FBS and an antibiotic cocktail containing Ampicillin (100 μg/ml), Chloramphenicol (20 μg/ml), Kanamycin (50 μg/ml), and Streptomycin (100 μg/ml) for 2 hours at 37° C. with 5% CO2. Colonic pieces were then washed 3 times in sterile 1× PBS to remove any traces of the antibiotic cocktail. Individual colonic pieces were then incubated in 1.5 ml Eppendorf tubes containing 500 μl of DMEM+10% FBS+/−2 μM Stauro for 8 hours or +/−20 μg/ml Doxorubicin for 6 hours. For caspase inhibition, 30 μM QVD was added to the 2-hour antibiotic treatment step and was maintained throughout death induction. After death induction, colonic explants were spun at max speed for 5 minutes using a tabletop centrifuge and supernatant was collected. Unfiltered supernatant was used immediately or frozen −20° C. for subsequent use. […] All subsequent experiments (cell death, bacterial growth) utilized explants extracted from a minimum of 3 mice.
as §2

CT26 cells = assay: Pyruvate concentration in CT26 supernatants; format: cell-based, murine; conditions: CT26 cells triggered with staurosporine
Experimental: Shikonin: CT26 cells were pretreated with 5 μM Shikonin (or DMSO vehicle control) for 1 hour. Cells were then washed once with PBS before replacing with fresh media containing the indicated trigger of cell death +/−5 μM Shikonin.
Metabolite detection: Pyruvate, formate, or fructose 1,6-bisphosphate concentrations were determined using the appropriate detection kit per the manufacturer's instructions. For these experiments, mammalian cells were cultured in DMEM without phenol red supplemented with 10% FBS.

Salmonella [4] = assay: Salmonella gene expression (qPCR) in mammalian cell supernatants; format: cell-based, Salmonella enterica serovar Typhimurium; conditions: apoptotic supernatants from CT26 and HCT116 cells
Experimental: For all gene expression studies, bacterial cultures were grown to mid logarithmic growth phase (OD600=0.4−0.6), spun down at max speed, and then resuspended in TRIzol™ reagent (ThermoFisher) for immediate extraction or frozen at −80° C. Bacterial RNA was extracted and DNA removed as described using the RiboPure RNA Purification Kit (Thermo Fisher). For RNAseq experiments, ribosomal RNA was removed using Ribo-zero kits (Illumina). For all RNAseq data, sample groups were analyzed in quadruplicates and reads were mapped to the Salmonella Typhimurium SL1344 reference genome (ASM21085v2, EnsEMBL 39).
qPCR: cDNA synthesis was performed using the SensiFast cDNA synthesis kit (GC Biotech). qPCR primers were designed using NCBI Primer Blast. The ΔΔCT values for each independent biological replicate were calculated twice, first using the Salmonella housekeeping gene gmk^55 and then the housekeeping gene strB^56 and the two ΔΔCT values were averaged. Relative fold expression was calculated such that the average of the indicated controls was equal to 1. The endogenous controls for HS E. coli samples were gmk and rpoA^57. All independent experiment values shown are the average values of technical duplicates.

CT26:FADD cells = assay: CT26:FADD cell death (flow cytometry); format: cell-based, murine
Experimental: as §1
FADD-dependent apoptosis: CT26:FADD clones were incubated with 1 μg/ml doxycycline for 16 hours to induce expression of the construct. Doxycycline was washed away before addition of 10 nM B/B Homodimerizer for 5 hours to induce death. […]

C57BL/6 colonic explants = assay: Caspase-3 activation in colonic explants (colorimetric assay); format: cell-based, mouse; conditions: 20 μg/ml Doxo, 6 hours ex vivo
Experimental: Full length colons (from cecum to rectum) were excised from the indicated genotype of mice and cut open longitudinally to flay the colon open. Opened colons were vortexed 2-3 times in sterile 1× PBS to remove fecal content. Colons were then cut horizontally into 5-7 mm long pieces and incubated in DMEM +10% FBS and an antibiotic cocktail containing Ampicillin (100 μg/ml), Chloramphenicol (20 μg/ml), Kanamycin (50 μg/ml), and Streptomycin (100 μg/ml) for 2 hours at 37° C. with 5% CO2. Colonic pieces were then washed 3 times in sterile 1× PBS to remove any traces of the antibiotic cocktail. Individual colonic pieces were then incubated in 1.5 ml Eppendorf tubes containing 500 μl of DMEM+10% FBS+/−2 μM Stauro for 8 hours or +/−20 μg/ml Doxorubicin for 6 hours. For caspase inhibition, 30 μM QVD was added to the 2-hour antibiotic treatment step and was maintained throughout death induction. […]
Caspase-3 activation: Following removal of the supernatant, explant pieces were assessed for caspase-3 activity via the Caspase-3 Colorimetric Activity Assay Kit, DEVD (Sigma) according to the manufacturer's instructions. Colorimetric values were obtained at 405 nm using the iMark™ microplate reader (BioRad) and arbitrary units were calculated from a standard curve using the provided pNA standard.

[5] = test system: endogenous Enterobacteriaceae; assay: Endogenous Enterobacteriaceae burden in uninfected doxorubicin-treated mice; format: in vivo; conditions: uninfected C57BL/6 mice, 2 days post-treatment
Experimental: (§3) Doxorubicin treatment. Doxorubicin was given as a single intraperitoneal (ip) injection at 15 mg/kg of mouse body weight while vehicle control (water) was given at similar volumes (approximately 300 μl volumes of water or 1 mg/ml Doxorubicin solution). The next day, mice were infected with 1×10^9 CFU of Salmonella (either single strain of competitive infections, as described above) or 1×10^9 CFU of E. coli. Tissues were harvested at day 1 post-infection and weight loss, total Salmonella burden, and competitive indices were calculated as above. Total Enterobacteriaceae burden, including E. coli, was assessed by plating tissue lysates on MacConkey agar without antibiotics. Uninfected controls were given 1× PBS via oral gavage instead of bacteria, and Endogenous Enterobacteriaceae burden was assessed by plating tissue lysates on MacConkey agar without antibiotics.

Salmonella [6] = assay: Salmonella infection after doxorubicin treatment in mice; format: in vivo, Salmonella enterica serovar Typhimurium; conditions: day 1 post-infection
Experimental: Salmonella-induced colitis. Littermate, sex, and age-matched mice were infected using the Salmonella model of colitis^34. Specific pathogen free (SPF) mice were given a single dose of 20 mg streptomycin via oral gavage (100 μl of 200 mg/ml streptomycin dissolved in water) one day prior to infection. Mice were infected with 1×10^7 CFU per mouse resuspended in 1× PBS via oral gavage. For competitive infections, polar deletions containing the chromosomally inserted kanamycin resistance gene were used^56. Mice were infected with 1×10^7 CFU per strain per mouse, for a 2×10^7 CFU per mouse total inoculum in 100 μl. […] The input ratio of each strain was calculated by plating the infective dose on agar plates containing streptomycin (total inoculum) and agar plates containing streptomycin plus kanamycin (mutant strain). WT Salmonella was thus calculated as (total inoculum)−(mutant inoculum) and input ratio was calculated as (WT Salmonella)/(mutant Salmonella inoculum) with a desired input equal to 1. Mouse body weight was measured daily and ‘% body weight’ was calculated as (daily weight)/(day 0 starting weight). […] CFU per gram of tissue were calculated by plating serial dilutions of tissue homogenates on MacConkey agar containing streptomycin and MacConkey agar containing streptomycin and kanamycin. […]

E. coli = E. coli infection after doxorubicin treatment in mice; format: in vivo; conditions: C57BL/6 mice; data not shown
Experimental: as §3

[7] = Doxorubicin-induced gastrointestinal toxicity in mice; format: in vivo
Experimental: as §3

Enterobacteriaceae = assay: Bacterial growth in media with or without Doxo; format: cell-based, Salmonella and E. coli (strain HS); conditions: 9 hours aerobic growth in media with or without Doxo
Experimental: as §2

[8] = single ip 15 mg/kg, followed by oral infection
[9] = uninfected mice, 2 days post-treatment

Sequence of membrane pannexin-1 channels (Q96RD7 whole entry): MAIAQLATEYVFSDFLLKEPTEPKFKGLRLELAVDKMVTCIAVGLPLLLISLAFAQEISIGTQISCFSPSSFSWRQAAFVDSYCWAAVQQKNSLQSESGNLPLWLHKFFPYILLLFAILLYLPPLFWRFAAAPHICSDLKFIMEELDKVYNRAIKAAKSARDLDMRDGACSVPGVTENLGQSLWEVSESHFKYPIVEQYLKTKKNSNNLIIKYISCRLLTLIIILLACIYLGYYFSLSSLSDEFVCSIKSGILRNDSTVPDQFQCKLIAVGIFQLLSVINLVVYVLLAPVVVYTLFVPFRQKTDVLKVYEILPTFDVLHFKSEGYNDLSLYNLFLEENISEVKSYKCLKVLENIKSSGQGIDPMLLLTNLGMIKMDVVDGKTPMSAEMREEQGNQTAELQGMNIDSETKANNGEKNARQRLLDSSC

C[C@H](Cn1cnc2c(N)ncnc21)OCP(=O)(O)O [Tenofovir]
membrane pannexin-1 channel inhibition [1]: inhibit membrane pannexin-1 channels

C=CCc1cccc(/C=N/NC(=O)CN2CCN(Cc3ccccc3)CC2)c1O [Pac-1]
bacterial growth in supernatants from treated CT26 cells (Salmonella [2]; 50 μM Pac-1 24 hours, OD600): enhanced bacterial growth

CN[C@@H]1C[C@H]2O[C@@](C)([C@@H]1OC)n1c3ccccc3c3c4c(c5c6ccccc6n2c5c31)C(=O)NC4 [staurosporine, Staurosporine]
Salmonella growth in supernatants of apoptotic CT26 cells compared to control treatments (Salmonella [2]; 1 μM staurosporine 24 hours, 9 hours aerobic growth): strongly induced Salmonella growth
Salmonella growth in apoptotic supernatants compared to live (vehicle-treated) colonocyte supernatants (Salmonella [3]; C57BL/6 colonic explants, 2 μM Stauro 8 hours ex vivo, CFU after 9 hours aerobic growth): ~10 fold
pyruvate released compared to live cell supernatants or fresh media controls (CT26 cells): significantly higher levels of pyruvate
Salmonella cadB expression (Salmonella [4]): significantly increased the expression
Salmonella pflB expression (Salmonella [4]): significantly increased the expression

CC(C)[C@H](NC(=O)c1ccc2ccccc2n1)C(=O)N[C@@H](CC(=O)O)C(=O)COc1c(F)cccc1F [QVD]
cell death (CT26:FADD cells; 30 μM QVD, 5 hours post-death induction with B/B dimerizer): reduced cell death
apoptotic caspase activation (CT26:FADD cells; QVD, data not shown): reduced
Salmonella growth in CT26:FADD supernatants with caspase inhibition (Salmonella [2]; CT26:FADD cells treated with QVD, 8 hours aerobic growth): reduced Salmonella growth back to media and live cell supernatant controls
Salmonella growth in dying colonocyte supernatant with caspase inhibition (Salmonella [3]; colonic explants treated with QVD and Stauro together, 30 μM QVD): restricted Salmonella growth to live supernatant control levels

COc1cccc2c1C(=O)c1c(O)c3c(c(O)c1C2=O)C[C@@](O)(C(=O)CO)C[C@@H]3O[C@H]1C[C@H](N)[C@H](O)[C@H](C)O1 [doxorubicin]
caspase-3 activation (C57BL/6 colonic explants): induced caspase-3 activation
endogenous Enterobacteriaceae CFU [5]: potent expansion of the endogenous Enterobacteriaceae
bacterial burden following infection with Salmonella (Salmonella [6]; C57BL/6 mice): staggering increases in bacterial burden
WT Salmonella compared to ΔpflB mutant (competitive index) (Salmonella [6]; control mice after doxorubicin treatment): significantly enriched
bacterial burden following infection with E. coli (E. coli): staggering increases in bacterial burden
Salmonella outgrowth in supernatants of treated colonic explants (Salmonella [3]; 20 μg/ml Doxo ex vivo, 9 hours aerobic growth): directly enhanced Salmonella outgrowth
cecal weight [7, 8]: significant reduction in cecal weight
colon length [7, 8]: shortening of the colon
caspase-3 activation in the ilea [7, 9]: caspase-3 activation in the ilea
damage to ceca and colons [7, 9]: sufficient to induce damage to the ceca and colons
direct action on bacterial growth (CFU) (Enterobacteriaceae): direct antimicrobial action

N[C@@H]1[C@H]2CN(c3nc4c(cc3F)c(=O)c(C(=O)O)cn4-c3ccc(F)cc3F)C[C@@H]12 [Trovafloxacin]
membrane pannexin-1 channel inhibition [1]: membrane pannexin-1 channel inhibitor

CC(=O)S[C@@H]1CC2=CC(=O)CC[C@]2(C)[C@H]2CC[C@@]3(C)[C@@H](CC[C@@]34CCC(=O)O4)[C@H]12 [spironolactone, Spironolactone]
membrane pannexin-1 channel inhibition [1]: membrane pannexin-I channel inhibitor

CCCN(CCC)S(=O)(=O)c1ccc(C(=O)O)cc1 [Probenecid]
membrane pannexin-1 channel inhibition [1]: membrane pannexin-1 channel inhibitor
